The values that follow come from patent publication US12678440B2, “Compositions and methods for treating misfolded protein ocular disorders” (CASE WESTERN RESERVE UNIVERSITY, priority 2020, dated 2026).

Series [1] concerns WT rhodopsin. Briefly: Immunoblot of rhodopsin, MTX plus BafA1 or MG-132, NIH3T3 (RHO^WT/GFP) cells. The format is cell-based. On the procedure: (§1) Cells were seeded in 6-well plates at a density of 5×10^5 cells/well and cultured at 37° C. with 5% CO2 for 17 h. The medium was replaced with a fresh medium containing a corresponding concentration of compounds. After treatment for 24 h, cells collected and lysed in 150 μL PBS containing 0.1% SDS and complete protease inhibitor cocktail with 12 s of sonication on ice. Retina samples were lysed in 300 μL per retina of PBS containing 0.1% SDS and complete protease inhibitor cocktail under 24 s of sonication on ice. Protein concentrations were determined by measurements of OD280 nm using a Nanodrop spectrometer. To immunoblot rhodopsin, one hundred μg of total protein for NIH3T3 (RHO^P23H/GFP) cells, or twenty μg of total protein for NIH3T3 (RHO^WT/GFP) cells was loaded per well onto an SDS-PAGE gel. To detect other proteins, fifty μg of total protein was loaded per well. After separation by electrophoresis in 10% and 16% SDS-PAGE gels, proteins were transferred to a nitrocellulose membrane using a wet membrane electrotransfer cassette followed by blocking with 5% bovine serum albumin in PBS containing 0.05% Tween 20 for 1 h. The membranes were incubated with primary antibodies at 4° C. overnight following with appropriate secondary antibodies for 1 h at room temperature. […]
In general terms: In western blotting, separated proteins are transferred to a membrane and probed.

For series [2], the system named is chymotrypsin-like proteasome activity. Briefly: Proteasome activity assay (Proteasome-Glo). Format: cell-based. Conditions: NIH3T3 (RHO^P23H/GFP) and NIH3T3 (RHO^WT/GFP) cells; 0.0195 to 10 μM, 24 h. On the procedure: NIH3T3 (RHO^P23H/GFP), NIH3T3 (RHO^WT/GFP) and NIH3T3 cells were seeded in a white-wall clear-bottom 384-well plate at 2500 cells/well in 20 μL of complete mediu. After 3 h of incubation, five μL/well of complete medium containing MTX was added to cells to treat cells with MTX at final concentrations from 0.0195 to 10 μM for 24 h. The cells treated with a complete medium containing 0.1% DMSO were used as the 100% control, and those treated with 5 μM MG-132 for 8 h were used as the 0% control. For endpoint proteasome activity measurement, each well was added with 25 μL of Proteasome-Glo™ Reagent containing the Suc-LLVY-Glo™ substrate (Promega, G8660, Madison, WI USA). The 384-well plate was shaken for 2 min to mix the solutions followed by a 24-min incubation at room temperature. Luminescence of each well was detected by a SpectraMax 13× microplate reader (Molecular Devices). The chymotrypsin-like proteasome activity was normalized by the 100% and 0% controls, respectively.

Series [3] relates to P23H rhodopsin in Rho^P23H/P23H mice. Nature of the series: Retinal immunoblotting of P23H rhodopsin after IVI in Rho^P23H/P23H mice. The format is in vivo, mouse. Conditions: IVI 25 pmol at PND 15; 24, 48 and 72 h; vs PBS; data not shown. On the procedure: as §1
The nature of series [4]: Estimated initial vitreous concentration after IVI. The following applies: mouse vitreous volume about 5.3 μL.
For series [5] the following is noted: cited from earlier work.

Regarding `CN(Cc1cnc2nc(N)nc(N)c2n1)c1ccc(C(=O)N[C@@H](CCC(=O)O)C(=O)O)cc1` [CL-009, N-[4-[[(2,4-diamino-6-pteridinyl)methyl]methylamino]benzoyl]-L-glutamic acid], the “WT rhodopsin level under BafA1 and MTX co-treatment (immunoblot)” value in series [1] (10 μM MTX + 100 nM BafA1, 24 h) was “accumulation of WT rhodopsin”. The “WT rhodopsin accumulation under MG-132 plus MTX (immunoblot)” value in series [1] (10 μM MTX + 5 μM MG-132, 24 h) is “did not”. The chymotrypsin-like proteasome activity entry in series [2] is reported as “did not affect”. In addition, the “P23H rhodopsin level by retinal immunoblotting” value in series [3] is “did not see consistently and statistically significant difference”. Besides, the vitreous concentration result in series [4] (25 pmol IVI) is on record as “about 4.7 μM”. In addition, the initial vitreous concentration in series [4] (100 pmol IVI) was 18.9 µM. For the same compound, the water solubility result in series [5] is “water-soluble”.
